Source: patent US20200216441A1, “PESTICIDALLY ACTIVE HETEROCYCLIC DERIVATIVES WITH SULFUR CONTAINING SUBSTITUENTS” (SYNGENTA PARTICIPATIONS AG, priority 2017, published 2020)

Experiments:
[1] = system: Myzus persicae (Green Peach Aphid); assay: whole plant or invertebrate; details: foliar, 144 h
[2] = system: Myzus persicae (Green Peach Aphid); assay: whole plant or invertebrate; type: in vivo; details: 144 h, test rate of 24 ppm, systemic, roots of infested pea seedlings in test solution, 6 days
[3] = system: Spodoptera littoralis (Egyptian Cotton Leaf Worm); assay: whole plant or invertebrate; details: in Gossypium barbadense, foliar, 72 h, read-out: control (mortality, anti-feeding effect, growth inhibition)
[4] = system: Plutella xylostella (Diamond Back Moth); assay: whole plant or invertebrate; type: in vivo; details: 120 h, application rate of 200 ppm, L2 larvae on treated artificial diet, 5 days after infestation, read-out: effect in at least one of the two categories (mortality or growth inhibition)
[5] = system: Diabrotica Balteata (Corn Root Worm); assay: Diabrotica balteata (Corn Root Worm); details: in Zea mays, 96 h, read-out: effect in at least one of the two categories (mortality or growth inhibition)
[6] = system: Bemisia tabaci (Cotton White Fly); details: in Gossypium hirsutum, foliar, 144 h
[7] = system: Euschistus heros (Neotropical Brown Stink Bug); assay: whole plant or invertebrate; type: in vivo; details: 120 h, application rate of 200 ppm, N2 nymphs on sprayed soybean leaves, 5 days after infestation, read-out: effect in at least one of the two categories (mortality or growth inhibition)

CCS(=O)(=O)c1cc(OC(CF)CF)ccc1-c1nc2cc(C(F)(F)F)ncc2n1C [Compound P100, 2-[2-ethylsulfonyl-4-[2-fluoro-1-(fluoromethyl)ethoxy]phenyl]-3-methyl-6-(trifluoromethyl)imidazo[4,5-c]pyridine]
≥ 80%: mortality at 200 ppm [1] | mortality at 24 ppm [2] | mortality at 200 ppm [3] | percent effect (mortality or growth inhibition) at 200 ppm [4] | mortality at 200 ppm [5] | mortality at 200 ppm [6] | percent effect (mortality or growth inhibition) at 200 ppm [7]

CCS(=O)(=O)c1cc(OCC(C)C)cnc1-c1nc2cc(C(F)(F)F)ncc2n1C [Compound P75, 2-(3-ethylsulfonyl-5-isobutoxy-2-pyridyl)-3-methyl-6-(trifluoromethyl)imidazo[4,5-c]pyridine]
≥ 80%: mortality at 200 ppm [1] | mortality at 24 ppm [2] | mortality at 200 ppm [3] | percent effect (mortality or growth inhibition) at 200 ppm [4] | mortality at 200 ppm [5] | mortality at 200 ppm [6] | percent effect (mortality or growth inhibition) at 200 ppm [7]

CCS(=O)(=O)c1cc(OCCOC)cnc1-c1nc2cc(C(F)(F)F)ncc2n1C [Compound P8, 2-[3-ethylsulfonyl-5-(2-methoxyethoxy)-2-pyridyl]-3-methyl-6-(trifluoromethyl)imidazo[4,5-c]pyridine]
≥ 80%: mortality at 200 ppm [1] | mortality at 24 ppm [2] | mortality at 200 ppm [3] | percent effect (mortality or growth inhibition) at 200 ppm [4] | mortality at 200 ppm [5] | mortality at 200 ppm [6] | percent effect (mortality or growth inhibition) at 200 ppm [7]

CCS(=O)(=O)c1cc(OCCCC#N)cnc1-c1nc2cc(C(F)(F)F)ncc2n1C [Compound P70, 4-[[5-ethylsulfonyl-6-[3-methyl-6-(trifluoromethyl)imidazo[4,5-c]pyridin-2-yl]-3-pyridyl]oxy]butanenitrile]
≥ 80%: mortality at 200 ppm [1] | mortality at 24 ppm [2] | mortality at 200 ppm [3] | percent effect (mortality or growth inhibition) at 200 ppm [4] | mortality at 200 ppm [6] | percent effect (mortality or growth inhibition) at 200 ppm [7]

CCS(=O)(=O)c1cc(OCCSC)cnc1-c1nc2cc(C(F)(F)F)ncc2n1C [Compound P11, 2-[3-ethylsulfonyl-5-(2-methylsulfanylethoxy)-2-pyridyl]-3-methyl-6-(trifluoromethyl)imidazo[4,5-c]pyridine]
≥ 80%: mortality at 200 ppm [1] | mortality at 24 ppm [2] | mortality at 200 ppm [3] | mortality at 200 ppm [6] | percent effect (mortality or growth inhibition) at 200 ppm [7]

CCS(=O)(=O)c1cc(OC2CC(F)(F)C2)cnc1-c1nc2cc(C(F)(F)F)ncc2n1C [Compound P42, 2-[5-(3,3-difluorocyclobutoxy)-3-ethylsulfonyl-2-pyridyl]-3-methyl-6-(trifluoromethyl)imidazo[4,5-c]pyridine]
≥ 80%: mortality at 200 ppm [1] | mortality at 24 ppm [2] | mortality at 200 ppm [3] | percent effect (mortality or growth inhibition) at 200 ppm [4] | mortality at 200 ppm [5] | mortality at 200 ppm [6] | percent effect (mortality or growth inhibition) at 200 ppm [7]

CCS(=O)(=O)c1cc(OCC2CC2(F)F)cnc1-c1nc2cc(C(F)(F)F)ncc2n1C (centres unmarked) [Compound P67, 2-[5-[(2,2-difluorocyclopropyl)methoxy]-3-ethylsulfonyl-2-pyridyl]-3-methyl-6-(trifluoromethyl)imidazo[4,5-c]pyridine]
≥ 80%: mortality at 200 ppm [1] | mortality at 200 ppm [3] | percent effect (mortality or growth inhibition) at 200 ppm [4] | mortality at 200 ppm [5] | mortality at 200 ppm [6] | percent effect (mortality or growth inhibition) at 200 ppm [7]

CCS(=O)(=O)c1cc(OCC(F)(F)F)cnc1-c1nc2cc(C(F)(F)F)ncc2n1C [Compound P15, 2-[3-ethylsulfonyl-5-(2,2,2-trifluoroethoxy)-2-pyridyl]-3-methyl-6-(trifluoromethyl)imidazo[4,5-c]pyridine]
≥ 80%: mortality at 200 ppm [1] | mortality at 24 ppm [2] | mortality at 200 ppm [3] | percent effect (mortality or growth inhibition) at 200 ppm [4] | mortality at 200 ppm [5] | mortality at 200 ppm [6] | percent effect (mortality or growth inhibition) at 200 ppm [7]

CCS(=O)(=O)c1cc(OCC2(C#N)CC2)ccc1-c1nc2cc(C(F)(F)F)ncc2n1C [Compound P101, 1-[[3-ethylsulfonyl-4-[3-methyl-6-(trifluoromethyl)imidazo[4,5-c]pyridin-2-yl]phenoxy]methyl]cyclopropanecarbonitrile]
≥ 80%: mortality at 200 ppm [1] | mortality at 24 ppm [2] | mortality at 200 ppm [3] | percent effect (mortality or growth inhibition) at 200 ppm [4] | mortality at 200 ppm [5] | mortality at 200 ppm [6] | percent effect (mortality or growth inhibition) at 200 ppm [7]

CCS(=O)(=O)c1cc(OCC(F)F)cnc1-c1nc2cc(C(F)(F)F)ncc2n1C [Compound P16, 2-[5-(2,2-difluoroethoxy)-3-ethylsulfonyl-2-pyridyl]-3-methyl-6-(trifluoromethyl)imidazo[4,5-c]pyridine]
≥ 80%: mortality at 200 ppm [1] | mortality at 24 ppm [2] | mortality at 200 ppm [3] | percent effect (mortality or growth inhibition) at 200 ppm [4] | mortality at 200 ppm [5] | mortality at 200 ppm [6] | percent effect (mortality or growth inhibition) at 200 ppm [7]

CCS(=O)(=O)c1cc(OC(C)(C)CF)cnc1-c1nc2cc(C(F)(F)F)ncc2n1C [Compound P30, 2-[3-ethylsulfonyl-5-(2-fluoro-1,1-dimethyl-ethoxy)-2-pyridyl]-3-methyl-6-(trifluoromethyl)imidazo[4,5-c]pyridine]
≥ 80%: mortality at 200 ppm [1] | mortality at 24 ppm [2] | mortality at 200 ppm [3] | percent effect (mortality or growth inhibition) at 200 ppm [4] | mortality at 200 ppm [5] | mortality at 200 ppm [6] | percent effect (mortality or growth inhibition) at 200 ppm [7]

CCS(=O)(=O)c1cc(OC(C)C)cnc1-c1nc2cc(S(=O)(=O)C(F)(F)F)ncc2n1C [Compound P72, 2-(3-ethylsulfonyl-5-isopropoxy-2-pyridyl)-3-methyl-6-(trifluoromethylsulfonyl)imidazo[4,5-c]pyridine]
≥ 80%: mortality at 200 ppm [1] | mortality at 24 ppm [2] | mortality at 200 ppm [3] | percent effect (mortality or growth inhibition) at 200 ppm [4] | mortality at 200 ppm [5] | mortality at 200 ppm [6] | percent effect (mortality or growth inhibition) at 200 ppm [7]
